Experiments:
[1] = tested on: ATXN3 transcripts containing exon 4 (E4E5); assay: ATXN3 quantitative splicing assay (qPCR, SK-N-MC cells); format: cell-based; conditions: Homo sapiens, 24 h treatment, qPCR E4E5 primers/probe, read-out: ATXN3 Potency - Splicing E4E5 IC50
Experimental: Human neuroblastoma SK-N-MC cells were plated in 384-well plates at 20,000 cells/well. Twenty-four hours after plating, cells were treated with compounds for 24 h at appropriate concentrations ranging from 30 μM to 0.6 nM (0.3% DMSO). Treated cells were lysed in 15 μL of lysis buffer, and cDNA was synthesized using the Fast Advanced Cells-to-Ct kit. Two μL of each cDNA was used in qPCR reactions to confirm the exon 4 skipped transcripts of ATXN3. A second set of primers/probe E4E5 was used to detect the transcripts containing exon 4. The third set of primers/probe E8E9 was used to detect total gene level of ATXN3. The qPCR reactions were prepared in 384-well plates in 10 μL volume, using TaqMan™ Fast Advanced Master Mix with primers and probes shown in the table below. Reactions were run in a Quant Studio 6 qPCR instrument with default settings.
The primers and probes are listed below in Table 4.

total ATXN3 protein = assay: ATXN3 total protein assay (MSD, SK-N-MC cells); format: cell-based, Human; conditions: 48 hours incubation, read-out: ATXN3 Potency - Protein IC50
Experimental: Human neuroblastoma SK-N-MC cells were seeded at 10,000 cells/well in 384 well plates one day prior to compound treatment. The concentrations of compounds were tested at appropriate doses ranging from 30 μM to 0.6 nM. After incubation for 48 hours, the cells were lysed with 25 μL of lysis buffer containing protease inhibitors, and total ATXN3 protein levels were assessed by Mesoscale Discovery (MSD) assay developed with one pair of anti-ATXN3 antibodies. The capture and detect antibodies were raised in mouse and rabbit respectively. Anti-rabbit MSD-ST antibody was used for secondary antibody.
ATXN3 recombinant protein was used for standards. The readouts were captured with 35 μL of MSD read buffer and multi-array 384-well high binding plates.

| SMILES | IC50 [1] | IC50 (total ATXN3 protein) |
| --- | --- | --- |
| Cc1c(C[C@@H](N)CO)sc2c(NCc3ccco3)cnnc12 [Compound 1, (2R)-2-amino-3-(4-{[(furan-2-yl)methyl]amino}-7-methylthieno[3,2-c]pyridazin-6-yl)propan-1-ol] | 0.501 to 5 µM | 0.501 to 5 µM |
| C#Cc1c(C[C@H](C)N)sc2c(NCc3cccs3)cnnc12 [Compound 116, 6-[(2S)-2-aminopropyl]-7-ethynyl-N-[(thiophen-2-yl)methyl]thieno[3,2-c]pyridazin-4-amine] | 1e-05 to 0.1 µM | 0.101 to 0.5 µM |
| Cc1c(C[C@@H](N)CCF)sc2c(NCc3cccs3)cnnc12 [Compound 48, 6-[(2S)-2-amino-4-fluorobutyl]-7-methyl-N-(thiophen-2-ylmethyl)thieno[3,2-c]pyridazin-4-amine] | 0.501 to 5 µM | 0.501 to 5 µM |
| Cc1c(CCN)sc2c(NCc3ccco3)cnnc12 [Compound 21, 6-(2-aminoethyl)-N-[(furan-2-yl)methyl]-7-methylthieno[3,2-c]pyridazin-4-amine] | 10 to 40 µM | 10 to 40 µM |
| Cc1c(CC#N)sc2c(NCc3cccs3)cnnc12 [Compound 98, 2-{7-methyl-4-[(thiophen-2-ylmethyl)amino]thieno[3,2-c]pyridazin-6-yl}acetonitrile] | 10 to 40 µM | 10 to 40 µM |
| Cc1c(C[C@@H](N)CC#N)sc2c(NCc3ccco3)cnnc12 [Compound 38, (3S)-3-amino-4-(4-{[(furan-2-yl)methyl]amino}-7-methylthieno[3,2-c]pyridazin-6-yl)butanenitrile] | 5 to 10 µM | 5 to 10 µM |
| Cc1nnc2c(C)c(C[C@H](C)N)sc2c1NCc1cccs1 [Compound 19, 6-[(2S)-2-aminopropyl]-3,7-dimethyl-N-[(thiophen-2-yl)methyl]thieno[3,2-c]pyridazin-4-amine] | 10 to 40 µM | 10 to 40 µM |
| C[C@H](N)Cc1sc2c(NCc3cccs3)cnnc2c1Cl [Compound 36, 6-[(2S)-2-aminopropyl]-7-chloro-N-[(thiophen-2-yl)methyl]thieno[3,2-c]pyridazin-4-amine] | 0.101 to 0.5 µM | 0.101 to 0.5 µM |
| Cc1c(C[C@@H](N)CCOC(F)F)sc2c(NCc3cccs3)cnnc12 [Compound 139, 6-[(2S)-2-amino-4-(difluoromethoxy)butyl]-7-methyl-N-(thiophen-2-ylmethyl)thieno[3,2-c]pyridazin-4-amine] | 0.501 to 5 µM | 0.501 to 5 µM |
| Cc1c(C[C@H](C)N)sc2c(NCc3cncs3)cnnc12 [Compound 44, 6-[(2S)-2-aminopropyl]-7-methyl-N-[(1,3-thiazol-5-yl)methyl]thieno[3,2-c]pyridazin-4-amine] | 10 to 40 µM | 10 to 40 µM |
| Cc1c(C[C@@H](N)CS(C)(=O)=O)sc2c(NCc3cccs3)cnnc12 [Compound 60, 6-[(2R)-2-amino-3-methanesulfonylpropyl]-7-methyl-N-(thiophen-2-ylmethyl)thieno[3,2-c]pyridazin-4-amine] | 5 to 10 µM | 5 to 10 µM |
| Cc1c(C[C@@H](N)CC(F)(F)F)sc2c(NCc3cccs3)cnnc12 [Compound 50, 6-[(2S)-2-amino-4,4,4-trifluorobutyl]-7-methyl-N-[(thiophen-2-yl)methyl]thieno[3,2-c]pyridazin-4-amine] | 0.501 to 5 µM | 0.501 to 5 µM |
| Cc1c(C[C@@H](N)CO)sc2c(NCc3cccs3)cnnc12 [Compound 3, (2R)-2-amino-3-{7-methyl-4-[(thiophen-2-ylmethyl)amino]thieno[3,2-c]pyridazin-6-yl}propan-1-ol] | 0.501 to 5 µM | 0.501 to 5 µM |
| Cc1c(C[C@H](N)C[C@@H]2CC2(F)F)sc2c(NCc3cccs3)cnnc12 [Compound 130, 6-[(2R)-2-amino-3-[(1R)-2,2-difluorocyclopropyl]propyl]-7-methyl-N-(thiophen-2-ylmethyl)thieno[3,2-c]pyridazin-4-amine] | 0.501 to 5 µM | 0.501 to 5 µM |

Source: patent US20250101034A1, “COMPOSITIONS USEFUL FOR MODULATING SPLICING” (SKYHAWK THERAPEUTICS, INC., priority 2021, published 2025)
